Results as given in patent US9682938B2, “Pyrazolone derivatives as nitroxyl donors” (Cardioxyl Pharmaceuticals, Inc., priority 2014, dated 2017).
Values joined by “and” are separate entries in the source; they are usually repeats but may differ in a detail not shown here. Identical values can stand only once.

Legend:
[1] = Nitroxyl production via 1H NMR protocol using TXPTS (NMR half-lives); format: physicochemical; details: phosphate buffer containing TXPTS (HNO trap); pH 7.4, 0.25 M phosphate buffer, 5 mM TXPTS, 1 mM compound, 37° C., spectra over 8 hours; read-out: NMR-T1/2
Experimental: The ^1H NMR procedure used was based on an HPLC protocol developed by S. Bruce King and coworkers (Reisz et al., Org. Lett. 11:2719-2721 (2009), Reisz et al., J. Am. Chem. Soc. 133:11675-11685 (2011) and Guthrie et al., J. Org. Chem. 80:1338-1348 (2015)). According to this procedure, the amount of HNO released from a pyrazolone derivative compound was determined by reacting the compound with the triarylphosphine TXPTS and monitoring the resulting aza-ylide formation.
The procedure for determining the amount of HNO released from certain compounds from Table 1 was as follows.
Tris(4,6-dimethyl-3-sulfanatophenyl)phosphine trisodium salt (TXPTS) was of reagent grade and used without further purification. Synthetic TXPTS aza-ylide was obtained through the amidation of TXPTS using hydroxylamine O-sulfonic acid in water (Armstrong et al., Org. Lett. 7:713-716 (2005)). All other materials were of reagent grade and used without further purification.
All ^1H NMR spectra were obtained in an adjusted-to pH 7.4 solution containing 0.25 M phosphate buffer, 0.2 mM of the metal chelator diethylenetriaminepentaacetic acid (“DTPAC”), and 10% D2O on a Bruker Avance 250 MHz FT-NMR spectrometer using a 1 second presaturation pulse to suppress the water signal. To a nitrogen-purged NMR solution (1.00 mL) containing TXPTS (3.3 mg, 5 mM) was added a pyrazolone derivative compound (10 μL of 100 mM in methanol-d4) to give 1 mM as the initial concentration of the pyrazolone derivative compound. The solution was briefly mixed, about 0.5 mL was transferred to a nitrogen-purged NMR tube and an initial ^1H NMR spectrum (time=0) was obtained. Thereafter, the sample was internally incubated at 37° C. and ^1H NMR spectra were collected at regular intervals for 8 hours.
The HNO donating pyrazolone derivative compound, by-product (e.g., (III) in Scheme 1), and TXPTS aza-ylide concentrations, determined from NMR spectra taken over 8 hours, were plotted as a function of time, and each data set was fitted to a single exponential function. The NMR half-lives for the disappearance of the HNO donating pyrazolone derivative compound and the appearance of by-product and TXPTS aza-ylide were determined from the respective plots. […] A control compound, compound 7 disclosed in WO 2013/059194, was also evaluated.

[2] = In vitro plasma stability, human plasma; format: in vitro ADME; details: male, pH 7.4, 5 μM, 37° C., sampling 0-360 minutes, read-out: T1/2 Human
In short: (§1)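 Pooled plasma at pH 7.4 with sodium heparin or citrate anticoagulant; compound at 5 μM, 37° C with shaking, triplicate samples at 0–360 min. Quenched in acetonitrile/1% formic acid with internal standard; LC-MS/MS peak-area ratios without standard curve; T1/2 from percent remaining.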

[3] = tested on: normal beagle dogs; test: Pharmacodynamic activity: systolic blood pressure decrease in telemetered dogs after oral dose; format: in vivo, dog; details: beagle dogs (n=3), single oral dose 30 mg/kg in PEG300, first 2 hr post-dose relative to baseline SBP
Experimental: The effect of certain compounds from Table 1 on blood pressure in freely moving telemetered normal beagle dogs (n=3) after single oral doses was evaluated. The animals were surgically implanted with a pressure transducer equipped telemetry transmitter. The transmitter assembly was secured internally and a fluid-filled catheter was placed into the abdominal aorta to allow for collection of cardiovascular data. To evaluate cardiovascular effects, 3 dogs were given single oral doses of a compound from Table 1 (100% PEG300 in gelatin capsules) at a concentration of 100 mg/mL and at doses of 30 mg/kg. Systemic blood pressure and heart rate were evaluated continuously for 2 hr before and for 24 hr after dosing (results not shown). To compare the pharmacodynamic activity for all tested compounds, the mean systolic blood pressure (SBP) decrease during the first 2 hr post-dose was determined relative to the baseline SBP (30-120 min pre-dose) (Table 6).

[4] = In vitro plasma stability, rat plasma; format: in vitro ADME; details: male, pH 7.4, 5 μM, 37° C., sampling 0-360 minutes, read-out: T1/2 Rat
In short: as §1

[5] = In vitro plasma stability, dog plasma; format: in vitro ADME; details: male, pH 7.4, 5 μM, 37° C., sampling 0-360 minutes, read-out: T1/2 Dog
In short: as §1

[6] = Solid-state stability at 40° C. and 75% RH (purity by HPLC); format: physicochemical; details: solid powder; for Solid-state stability, purity by HPLC, 0 Months: 0 Months (initial); for Solid-state stability, purity by HPLC, 1 Month: in % (unit assumed)
Experimental: Solid, powdered samples of certain compounds from Table 1 were sealed in double polyethylene bags and stored at 40° C., 75% relative humidity (“RH”) for up to 3 months. A control compound, compound 7 disclosed in WO 2013/059194, was also tested. Initially and after 1 month, 2 months, and 3 months of storage, the samples were analyzed for purity, as determined by high performance liquid chromatography (“HPLC”). Additionally, certain compounds from Table 1 were admixed at a level of 50% by weight with one of the following excipients before stability testing: lactose, microcrystalline cellulose, or croscarmellose sodium. The resulting admixtures were also stored as described above then analyzed for purity of the pyrazolone derivative component, as determined by HPLC. The HPLC apparatus comprised a quaternary or binary pump, an auto sampler, a thermostated column compartment, and a UV/visible detector. The HPLC measurement conditions were as follows: • Column: Zorbax Eclipse XDB-C18, 2.1×50 mm, 3.5 μm (Agilent Technologies, Santa Clara, Calif.) • Injection Volume: 2 μL • Detection Wavelength: 220 nm • Mobile Phase A: 0.1% by volume formic acid (“FA”) in water • Mobile Phase B: 0.1% by volume FA in acetonitrile • Diluent: About 0.2 mg sample/mL acetonitrile • Gradient:
• Flow Rate: 0.8 mL/min • Column Temperature: 25° C.

| SMILES | half-life at 1 mM [1] [min] | half-life at 5 μM [2] [min] | Mean SBP decrease [3] [mmHg] | half-life at 5 μM [4] [min] | half-life at 5 μM [5] [min] | Solid-state stability, purity by HPLC, 0 Months [6] [%] | Solid-state stability, purity by HPLC, 1 Month [6] | Solid-state stability, purity by HPLC, 2 Months [6] [%] | Solid-state stability, purity by HPLC, 3 Months [6] [%] |
| --- | --- | --- | --- | --- | --- | --- | --- | --- | --- |
| CN1N=C(c2ccc(Cl)cc2)C(C)(NO)C1=O (stereo not drawn) [Compound 1, 5-(4-chlorophenyl)-4-(hydroxyamino)-2,4-dimethyl-2,4-dihydro-3H-pyrazol-3-one] | 780 | 84 | 3 | 80 | 148 | 100 | 99.2 | 99.8 | 99.8 |
| CN1N=C(c2ccccc2Cl)C(C)(NO)C1=O (stereo not drawn) [Compound 2, 5-(2-chlorophenyl)-4-(hydroxyamino)-2,4-dimethyl-2,4-ddihydro-3H-pyrazol-3-one] | 50 | 52 | 2 | 61 | 72 | 91.2 | <10 | < 10 | < 10 |
| CN1N=C(c2ccccc2F)C(C)(NO)C1=O (stereo not drawn) [Compound 3, 5-(2-fluorophenyl)-4-(hydroxyamino)-2,4-dimethyl-2,4-dihydro-3H-pyrazol-3-one] | 237 | 32 | 28 | 37 | 28 |  |  |  |  |
| CC1=NN(C)C(=O)C1(NO)c1ccccc1 (stereo not drawn) [Compound 6, 4-(hydroxyamino)-2,5-dimethyl-4-phenyl-2,4-dihydro-3H-pyrazol-3-one] | 34 | 38 | 22 |  | 12 | 99.8 | <10 |  |  |
| CN1N=C(c2ccc(S(C)(=O)=O)cc2)C(C)(NO)C1=O (stereo not drawn) [Compound 14, 4-(hydroxyamino)-2,4-dimethyl-5-(4-(methylsulfonyl)phenyl)-2,4-dihydro-3H-pyrazol-3-one] | 379 | 49 | 13 | 40 | 66 | 99.3 | 97.0 and 61.0 | 68 |  |
| CN1N=C(c2ccccc2)C(C)(NO)C1=O (stereo not drawn) [Compound 15, 4-(hydroxyamino)-2,4-dimethyl-5-phenyl-2,4-dihydro-3H-pyrazol-3-one] | 1000 | 80 | 31 | 67 | 100 | 98.3 | <10 |  |  |
| CN1N=C(c2ccc(S(=O)(=O)N(C)C)cc2)C(C)(NO)C1=O (stereo not drawn) [Compound 49, 4-(4-(hydroxyamino)-1,4-dimethyl-5-oxo-4,5-dihydro-1H-pyrazol-3-yl)-N,N-dimethylbenzenesulfonamide] |  | 52 | 18 | 70 | 39 |  |  |  |  |
| CN1N=C(c2ccc(S(C)(=N)=O)cc2)C(C)(NO)C1=O (stereo not drawn) [Compound 75, 4-(Hydroxyamino)-3-{4-[imino(methyl)oxo-λ^6-sulfanyl]phenyl}-1,4-dimethyl-4,5-dihydro-1H-pyrazol-5-one] |  | 49 | 12 | 113 | 47 |  |  |  |  |
| CC(C)S(=O)(=O)c1ccc(C2=NN(C)C(=O)C2(C)NO)cc1 (stereo not drawn) [Compound 78, 4-(Hydroxyamino)-1,4-dimethyl-3-[4-(propane-2-sulfonyl)phenyl]-4,5-dihydro-1H-pyrazol-5-one] |  | 43 | 27 | 75 | 42 |  |  |  |  |
| CN1N=C(c2ccc(S(=O)(=O)N3CCOCC3)cc2)C(C)(NO)C1=O (stereo not drawn) [Compound 80, 4-(Hydroxyamino)-1,4-dimethyl-3-[4-(morpholine-4-sulfonyl)phenyl]-4,5-dihydro-1H-pyrazol-5-one] |  | 46 | 13 | 80 | 49 |  |  |  |  |
| CN(C)C(=O)c1ccc(C2=NN(C)C(=O)C2(C)NO)cc1 (stereo not drawn) [Compound 84, 4-[4-(Hydroxyamino)-1,4-dimethyl-5-oxo-4,5-dihydro-1H-pyrazol-3-yl]-N,N-dimethylbenzamide] |  | 89 | 15 | 161 | 100 |  |  |  |  |
| CCO/N=C(\C)C1(NO)C(=O)N(C)N=C1C(C)(C)C (stereo not drawn) [Compound 112, 3-tert-Butyl-4-[1-(ethoxyimino)ethyl]-4-(hydroxyamino)-1-methyl-4,5-dihydro-1H-pyrazol-5-one] |  | 10 | 21 | 19 | 21 |  |  |  |  |
| CN1N=C(C(C)(C)C)C(NO)(c2ccccc2)C1=O (stereo not drawn) [Compound 113, 3-tert-Butyl-4-(hydroxyamino)-1-methyl-4-phenyl-4,5-dihydro-1H-pyrazol-5-one] |  | 30 | 18 | 53 | 75 |  |  |  |  |
